Reference: patent US11161856B2 (H. Lundbeck A/S, priority 2017, dated 2021)

Assays:
MGLL = target: T1, MGLL (Mus musculus, UniProt O35678); experiment: In vitro competitive activity-based protein profiling, mouse brain proteome (MGLL); assay type: biochemical; conditions: concentration not given (μM)
T1 construct: Brain; from tissue; host or cells: mouse brain proteome
T1 sequence (O35678 1-303): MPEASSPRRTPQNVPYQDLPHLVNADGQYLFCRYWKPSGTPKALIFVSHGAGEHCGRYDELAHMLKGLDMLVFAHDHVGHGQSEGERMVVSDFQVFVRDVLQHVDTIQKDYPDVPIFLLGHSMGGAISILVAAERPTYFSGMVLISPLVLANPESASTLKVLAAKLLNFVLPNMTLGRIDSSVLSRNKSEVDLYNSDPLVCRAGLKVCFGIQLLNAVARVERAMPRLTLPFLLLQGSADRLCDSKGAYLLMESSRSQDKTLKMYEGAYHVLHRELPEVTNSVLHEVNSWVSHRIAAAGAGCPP

ABHD6 = target: T2, ABHD6 (Mus musculus, UniProt Q8R2Y0); experiment: In vitro competitive activity-based protein profiling, mouse brain proteome (ABHD6); assay type: biochemical; conditions: mouse brain proteome; concentration not given (μM)
T2 construct: Brain; from tissue; host or cells: mouse brain proteome
T2 sequence (Q8R2Y0 1-336): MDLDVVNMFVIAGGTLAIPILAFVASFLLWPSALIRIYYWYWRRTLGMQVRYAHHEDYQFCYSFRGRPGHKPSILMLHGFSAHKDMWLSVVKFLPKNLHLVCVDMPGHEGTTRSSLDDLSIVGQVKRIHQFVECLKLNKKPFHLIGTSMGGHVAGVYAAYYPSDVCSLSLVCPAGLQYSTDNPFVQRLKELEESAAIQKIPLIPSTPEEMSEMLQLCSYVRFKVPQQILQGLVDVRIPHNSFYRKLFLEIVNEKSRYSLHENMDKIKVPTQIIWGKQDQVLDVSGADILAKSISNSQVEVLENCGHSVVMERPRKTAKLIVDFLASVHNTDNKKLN
Procedure: [The source words this procedure for another target and reports this target under the same test.] In Vitro Competitive Activity-Based Protein Profiling.
Proteomes (human prefrontal cortex or cell membrane fractions) (50 μL, 1.0 mg/mL total protein concentration) were preincubated with varying concentrations of inhibitors at 37° C. After 30 min, FP-Rh or HT-01 (1.0 μL, 50 μM in DMSO) was added and the mixture was incubated for another 30 min at room temperature. Reactions were quenched with SDS loading buffer (15 μL-4×) and run on SDS-PAGE.

SMILES	% Inh MGLL Brain (Mouse, μM) (MGLL)	% Inh ABHD6 Brain (Mouse, μM) (ABHD6)
CC(=O)N1CCC2(CC1)CCN(c1cc(C(F)(F)F)ccc1CN1CCN(C(=O)OC(C(F)(F)F)C(F)(F)F)CC1)C2 [Example 197, 1.1.1,3,3.3-Hexafluoropropan-2-yl 4-(2-(8-acetyl-2,8-diazaspiro[4.5]decan-2-yl)-4-(trifluoromethyl)benzyl)pipera zine-l-carboxylate]	### (### is ≥75%)	# (# is ≤25%)
CC(=O)N1CCC2(CC1)CN(c1cc(C(F)(F)F)ccc1CN1CCN(C(=O)OC(C(F)(F)F)C(F)(F)F)CC1)C2 [Example 199, 1.1,1.3.3,3-Hexafluoropropan-2-yl 4-(2-(7-acetyl-2,7-diazaspiro[3.5]nonan-2-yl)-4-(trifluoromethyl)benzyl)pipera zine-l-carboxylate]	### (### is ≥75%)	# (# is ≤25%)
CC(=O)N1CC2CN(c3cc(C(F)(F)F)ccc3CN3CCN(C(=O)OC(C(F)(F)F)C(F)(F)F)CC3)CC2C1 (stereo not drawn) [Example 200, 1,1,1,3,3,3-Hexafluoropropan-2-yl 4-(2-(5-acetylhexahydropyrrolo[3,4-c]pyrrol-2(lH)-yl)-4-(trifluoromethyl)benzyl)pipera zine-l-carboxylate]	### (### is ≥75%)	# (# is ≤25%)
CS(=O)(=O)N1CC2CN(c3cc(C(F)(F)F)ccc3CN3CCN(C(=O)OC(C(F)(F)F)C(F)(F)F)CC3)CC2C1 (stereo not shown) [Example 201, 1,1,1,3,3,3-Hexafluoropropan-2-yl 4-(2-(5-(methylsulfonyl)hexahydropyrrolo[3,4-c]pyrrol-2(lH)-yl)-4-(tnfluoromethyl)benzyl)pipera zinc-1-carboxylate]	### (### is ≥75%)	## (## is between 25 and 75%)
CC(=O)N1CC2CN(c3cc(Cl)ccc3CN3CCN(C(=O)OC(C(F)(F)F)C(F)(F)F)CC3)CC2C1 (stereo not shown) [Example 202, 1,1,1,3,3,3-Hexafluoropropan-2-yl 4-(2-(5-acetylhexahydropyrrolo[3,4-c]pyrrol-2(lH)-yl)-4-chlorobenzyl)piperazine-1 - carboxylate]	### (### is ≥75%)	## (## is between 25 and 75%)
CS(=O)(=O)N1CC2CN(c3cc(Cl)ccc3CN3CCN(C(=O)OC(C(F)(F)F)C(F)(F)F)CC3)CC2C1 (stereo not shown) [Example 203, 1,1,1,3,3,3-Hexafluoropropan-2-yl 4-(4-chloro-2-(5-(methylsulfonyl)hexahydropyrrolo[3,4-c]pyrrol-2(lH)-yl)benzyl)piperazine-l - carboxylate]	### (### is ≥75%)	### (### is ≥75%)
CC(=O)N1CCCC12CCN(c1cc(Cl)ccc1CN1CCN(C(=O)OC(C(F)(F)F)C(F)(F)F)CC1)CC2 [Example 204, 1,1,1,3,3,3-Hexafluoropropan-2-yl 4-(2-(1-acetyl-1,8-diazaspiro[4.5]decan-8-yl)-4-chlorobenzyl)piperazine-l-carboxylate]	### (### is ≥75%)	# (# is ≤25%)
CN1CC2CN(c3cc(Cl)ccc3CN3CCN(C(=O)OC(C(F)(F)F)C(F)(F)F)CC3)CC2C1 (stereo not shown) [Example 206, 1,1,1,3,3,3-Hexafluoropropan-2-yl 4-(4-chloro-2-(5-methylhexahydropyrrolo[3,4-c]pyrrol-2(1H)-yl)benzyl)piperazine-1-carboxylate]	### (### is ≥75%)	# (# is ≤25%)
CC(=O)N1CCCC12CCN(c1cc(C(F)(F)F)ccc1CN1CCN(C(=O)OC(C(F)(F)F)C(F)(F)F)CC1)CC2 [Example 208, 1,1,1,3,3,3-Hexafluoropropan-2-yl 4-(2-(1-acetyl-1,8-diazaspiro[4.5]decan-8-yl)-4-(trifluoromethyl)benzyl) piperazine-1-carboxylate]	### (### is ≥75%)	# (# is ≤25%)
CS(=O)(=O)N1CCCC12CCN(c1cc(C(F)(F)F)ccc1CN1CCN(C(=O)OC(C(F)(F)F)C(F)(F)F)CC1)CC2 [Example 209, 1,1,1,3,3,3-Hexafluoropiopan-2-yl 4-(2-(1-(methylsulfonyl)-1.8-diazaspiro[4.5]decan-8-yl)-4-(trifluoromethyl)benzyl) piperazine-1-carboxylate]	### (### is ≥75%)	# (# is ≤25%)
CN1CCCC12CCN(c1cc(Cl)ccc1CN1CCN(C(=O)OC(C(F)(F)F)C(F)(F)F)CC1)CC2 [Example 214, 1,1,1,3,3,3-Hexafluoropropan-2-yl 4-(4-chloro-2-(1-methyl-1,8-diazaspiro[4.5]decan-8-yl)benzyl)piperazine-1-carboxylate]	### (### is ≥75%)	# (# is ≤25%)
CN1CCCC12CCN(c1cc(C(F)(F)F)ccc1CN1CCN(C(=O)OC(C(F)(F)F)C(F)(F)F)CC1)CC2 [Example 215, 1,1,1,3,3,3-Hexafluoropropan-2-yl 4-(2-(1-methyl-1,8-diazaspiro[4.5]decan-8-yl)-4-(trifluoromethyl)benzyl) piperazine-1-carboxylate]	### (### is ≥75%)	# (# is ≤25%)
CC(=O)N1CC2(CCN(c3cc(C(F)(F)F)ccc3CN3CCN(C(=O)OC(C(F)(F)F)C(F)(F)F)CC3)CC2)C1 [Example 216, 1,1,1,3,3,3-Hexafluoropropan-2-yl 4-(2-(2-acetyl-2,7-diazaspiro[3.5]nonan-7-yl)-4-(trifluoromethyl)benzyl) piperazine-1-carboxylate]	### (### is ≥75%)	## (## is between 25 and 75%)
CS(=O)(=O)N1CCc2cccc(CN3CCC4(CC3)CCN(C(=O)OC(C(F)(F)F)C(F)(F)F)C4)c2C1 [Example 217, 1,1,1,3,3,3-Hexafluoropropan-2-yl 8-((2-(methylsulfonyl)-1,2,3,4-tetrahydroisoquinolin-8-yl)methyl)-2,8-diazaspiro[4.5]decane-2-carboxylate]	### (### is ≥75%)	### (### is ≥75%)

More lines, now with the values ahead:

% Inh MGLL Brain (Mouse, μM) (MGLL)	% Inh ABHD6 Brain (Mouse, μM) (ABHD6)	SMILES
### (### is ≥75%)	# (# is ≤25%)	CS(=O)(=O)N1CCC2(CCN(c3cc(C(F)(F)F)ccc3CN3CCN(C(=O)OC(C(F)(F)F)C(F)(F)F)CC3)C2)CC1 [Example 196, 1,1,1,3,3,3-Hexafluoropropan-2-yl 4-(2-(8-(methylsulfonyl)-2,8-diazaspiro[4.5]decan-2-yl)-4-(trifluoromcthyl)benzyl)pipera zinc-1-carboxylate]
### (### is ≥75%)	# (# is ≤25%)	CC(=O)N1CCC2(CC1)CN(c1cc(Cl)ccc1CN1CCN(C(=O)OC(C(F)(F)F)C(F)(F)F)CC1)C2 [Example 198, 1.1.1,3,3,3-Hexafluoropropan-2-yl 4-(2-(7-acetyl-2,7-diazaspiro[3.5]nonan-2-yl)-4-chlorobenzyl)piperazine-1-carboxylate]
### (### is ≥75%)	## (## is between 25 and 75%)	CS(=O)(=O)N1CCCC12CCN(c1cc(Cl)ccc1CN1CCN(C(=O)OC(C(F)(F)F)C(F)(F)F)CC1)CC2 [Example 205, 1,1,1,3,3,3-Hexafluoropropan-2-yl 4-(4-chloro-2-(l-(methylsulfonyl)-1,8-diazaspiro[4.5]decan-8-yl)benzyl)piperazine-l-carboxylate]
### (### is ≥75%)	### (### is ≥75%)	CS(=O)(=O)N1CC2(CCN(c3cc(C(F)(F)F)ccc3CN3CCN(C(=O)OC(C(F)(F)F)C(F)(F)F)CC3)CC2)C1 [Example 211, 1,1,1,3,3,3-Hexafluoropropan-2-yl 4-(2-(2-(methylsulfonyl)-2,7-diazaspiro[3.5]nonan-7-yl)-4-(trifluoiomethyl)benzyl) piperazine-1-carboxylate]
### (### is ≥75%)	## (## is between 25 and 75%)	CS(=O)(=O)N1CC2(CCN(c3cc(Cl)ccc3CN3CCN(C(=O)OC(C(F)(F)F)C(F)(F)F)CC3)CC2)C1 [Example 212, 1,1,1,3,3,3-Hexafluoropropan-2-yl 4-(4-chloro-2-(2-(methylsulfonyl)-2,7-diazaspiro[3.5]nonan-7-yl)benzyl)piperazine-1-carboxylate]
### (### is ≥75%)	## (## is between 25 and 75%)	CC(=O)N1CC2(CCN(c3cc(Cl)ccc3CN3CCN(C(=O)OC(C(F)(F)F)C(F)(F)F)CC3)CC2)C1 [Example 213, 1,1,1,3,3,3-Hexafluoropropan-2-yl 4-(2-(2-acetyl-2,7-diazaspiro[3.5]nonan-7-yl)-4-chlorobenzyl)piperazine-1-carboxylate]
